Assay results as given in patent US20040116513A1, “Method to alter the isomeric profile of trans fatty acid in ruminant meat and milk and to increase the concentration of $I(cis)-11 conjugated linoleic acid” (priority 2000, published 2004).

Columns and labels:
[1] = tested on: growing chicks; settings: cited from earlier work
[2] = tested on: lactating dairy cow; experiment: Vitamin E tolerated dose extrapolated to lactating dairy cow; format: in vivo; settings: 500 kg lactating dairy cow, extrapolated from chicks
Text: Vitamin E has a toxic effect only at very high dosages. In growing chicks, daily intake of 1000 IU/kg of body weight is without negative effects. Corresponding dietary dose in a 500 kg lactating dairy cow would be 500 000 IU/d which far exceeds the effective dose range in this invention as described before.

[3] = tested on: multiparous Holstein cows; experiment: Animal study of dietary addition of vitamin E to an oilseed diet: milk production and milk fatty acid profile; format: in vivo, cow; settings: result in words
Description: The effect of Vitamin E addition in the diet on milk fat depression as well as on the biohydrogenation shift from trans-11 to trans-10 fatty acids classically observed upon feeding of high doses of unsaturated fatty acids, was tested in vivo with six multiparous Holstein cows that yielded more than 25 kg milk/d.
A Latin square experimental design consisting of three groups of two cows, three periods of four weeks and three diets (control, oilseed and oilseed+tocopheryl-acetate) was followed. For all groups, the mixed basal diet consisted, in dry matter terms, of 30% grass silage, 46% corn silage, 13% dried sugar beet pulp, 10% soybean meal and 1% mineral & vitamin mixture. The oilseed concentrate consisted of 50% barley, 25% rapeseed and 25% linseed, whereas its control counterpart was made of 50% barley, 25% rapeseed meal and 25% linseed meal.
The amounts of oilseeds concentrate offered were calculated to provide approximately 550 g/d of supplemental lipids. In addition, cows fed oilseed diet plus Vitamin E received 9600 IU of the vitamin per day, together with the oilseed concentrate.
Milk weights were automatically recorded daily at each milking. Milk samples were taken during the last week of each period and analysed for crude protein, fat and fatty acid profile. Quantification of the trans-C18:1 and CLA isomers was performed by gas chromatography as described in Griinari et al. (1998).

For CC(=O)Oc1c(C)c(C)c2c(c1C)CCC(C)(CCC[C@H](C)CCC[C@H](C)CCCC(C)C)O2 (mixture of isomers) [vitamin E, all-rac-α-tocopheryl acetate], the “daily intake without negative effects” value [1] is given as 1000 IU/kg of body weight, the “corresponding dietary dose without negative effects” value [2] is given as 500 000 IU/d and the “CLA content (cis-9, trans-11 C18:2) of milk fat” value [3] is given as “increased CLA content dramatically”. The “level of trans-10 C18:1 in milk fat” value [3] was “decreased to control levels”, the “level of trans-11 C18:1 in milk fat” value [3] was “increased significantly” and the “levels of C4:0 to C16:0 saturated fatty acids in milk” value [3] was “no major impact”. The “levels of stearic acid (C18:0) in milk” value [3] was “no major impact”, the milk fat yield [3] was “complete recovery” and the “shift in the ruminal biohydrogenation process (trans-11 to trans-10)” value [3] was “completely abolished”. For the same compound, the “total monounsaturated C18 (C18:1) fatty acids in milk” value [3] was “no major impact”.
